Results from the OligoGym collection.
Oligonucleotides are given in HELM: sugar(base)linkage, 5' to 3'; d 2'-deoxyribose, r ribose, m 2'-O-methylribose, p phosphate. ss, as = sense and antisense strand
Also: test concentration or dose not given here.

The substances below were run against Cacnb1 (rat) (assay: reporter assay of Huesken 2005). Details: siRNA.
Substance “RNA1{r(G)p.r(U)p.r(G)p.r(C)p.r(G)p.r(G)p.r(A)p.r(G)p.r(G)p.r(G)p.r(U)p.r(G)p.r(G)p.r(U)p.r(G)p.r(G)p.r(G)p.r(C)p.r(C)p.d(T)p.d(T)}|RNA2{r(G)p.r(G)p.r(C)p.r(C)p.r(C)p.r(A)p.r(C)p.r(C)p.r(A)p.r(C)p.r(C)p.r(C)p.r(U)p.r(C)p.r(C)p.r(G)p.r(C)p.r(A)p.r(C)p.d(A)p.d(G)}$$$RNA1{StrandType:ss}|RNA2{StrandType:as}$” has a normalised inhibition (eCFP-eYFP dual reporter) of 52.4%.
In the case of “RNA1{r(C)p.r(C)p.r(A)p.r(C)p.r(C)p.r(C)p.r(A)p.r(A)p.r(U)p.r(C)p.r(C)p.r(G)p.r(C)p.r(U)p.r(G)p.r(C)p.r(U)p.r(G)p.r(A)p.d(T)p.d(T)}|RNA2{r(U)p.r(C)p.r(A)p.r(G)p.r(C)p.r(A)p.r(G)p.r(C)p.r(G)p.r(G)p.r(A)p.r(U)p.r(U)p.r(G)p.r(G)p.r(G)p.r(U)p.r(G)p.r(G)p.d(C)p.d(G)}$$$RNA1{StrandType:ss}|RNA2{StrandType:as}$”, the normalised inhibition (eCFP-eYFP dual reporter) is reported as 81.5%.
Work on “RNA1{r(C)p.r(A)p.r(G)p.r(G)p.r(A)p.r(G)p.r(A)p.r(U)p.r(G)p.r(A)p.r(G)p.r(G)p.r(U)p.r(G)p.r(C)p.r(C)p.r(A)p.r(G)p.r(U)p.d(T)p.d(T)}|RNA2{r(A)p.r(C)p.r(U)p.r(G)p.r(G)p.r(C)p.r(A)p.r(C)p.r(C)p.r(U)p.r(C)p.r(A)p.r(U)p.r(C)p.r(U)p.r(C)p.r(C)p.r(U)p.r(G)p.d(G)p.d(A)}$$$RNA1{StrandType:ss}|RNA2{StrandType:as}$” yielded a normalised inhibition (eCFP-eYFP dual reporter) of 83.4%.
For “RNA1{r(A)p.r(A)p.r(U)p.r(G)p.r(U)p.r(U)p.r(G)p.r(G)p.r(C)p.r(U)p.r(A)p.r(C)p.r(A)p.r(A)p.r(U)p.r(C)p.r(C)p.r(G)p.r(U)p.d(T)p.d(T)}|RNA2{r(A)p.r(C)p.r(G)p.r(G)p.r(A)p.r(U)p.r(U)p.r(G)p.r(U)p.r(A)p.r(G)p.r(C)p.r(C)p.r(A)p.r(A)p.r(C)p.r(A)p.r(U)p.r(U)p.d(T)p.d(G)}$$$RNA1{StrandType:ss}|RNA2{StrandType:as}$”, the normalised inhibition (eCFP-eYFP dual reporter) was 90.9%.
With “RNA1{r(C)p.r(U)p.r(G)p.r(G)p.r(C)p.r(U)p.r(G)p.r(A)p.r(G)p.r(G)p.r(U)p.r(A)p.r(C)p.r(A)p.r(G)p.r(A)p.r(G)p.r(U)p.r(G)p.d(T)p.d(T)}|RNA2{r(C)p.r(A)p.r(C)p.r(U)p.r(C)p.r(U)p.r(G)p.r(U)p.r(A)p.r(C)p.r(C)p.r(U)p.r(C)p.r(A)p.r(G)p.r(C)p.r(C)p.r(A)p.r(G)p.d(G)p.d(C)}$$$RNA1{StrandType:ss}|RNA2{StrandType:as}$” the normalised inhibition (eCFP-eYFP dual reporter) was 34.8%.
“RNA1{r(C)p.r(C)p.r(U)p.r(G)p.r(G)p.r(A)p.r(C)p.r(G)p.r(A)p.r(G)p.r(A)p.r(A)p.r(C)p.r(C)p.r(A)p.r(A)p.r(U)p.r(U)p.r(G)p.d(T)p.d(T)}|RNA2{r(C)p.r(A)p.r(A)p.r(U)p.r(U)p.r(G)p.r(G)p.r(U)p.r(U)p.r(C)p.r(U)p.r(C)p.r(G)p.r(U)p.r(C)p.r(C)p.r(A)p.r(G)p.r(G)p.d(A)p.d(T)}$$$RNA1{StrandType:ss}|RNA2{StrandType:as}$” showed a normalised inhibition (eCFP-eYFP dual reporter) of 80.2%.
“RNA1{r(U)p.r(A)p.r(C)p.r(A)p.r(C)p.r(G)p.r(G)p.r(A)p.r(G)p.r(C)p.r(C)p.r(A)p.r(G)p.r(G)p.r(A)p.r(G)p.r(A)p.r(C)p.r(U)p.d(T)p.d(T)}|RNA2{r(A)p.r(G)p.r(U)p.r(C)p.r(U)p.r(C)p.r(C)p.r(U)p.r(G)p.r(G)p.r(C)p.r(U)p.r(C)p.r(C)p.r(G)p.r(U)p.r(G)p.r(U)p.r(A)p.d(G)p.d(A)}$$$RNA1{StrandType:ss}|RNA2{StrandType:as}$” showed a normalised inhibition (eCFP-eYFP dual reporter) of 54.9%.
“RNA1{r(U)p.r(A)p.r(C)p.r(A)p.r(U)p.r(C)p.r(C)p.r(G)p.r(C)p.r(U)p.r(G)p.r(A)p.r(G)p.r(A)p.r(G)p.r(G)p.r(C)p.r(A)p.r(G)p.d(T)p.d(T)}|RNA2{r(C)p.r(U)p.r(G)p.r(C)p.r(C)p.r(U)p.r(C)p.r(U)p.r(C)p.r(A)p.r(G)p.r(C)p.r(G)p.r(G)p.r(A)p.r(U)p.r(G)p.r(U)p.r(A)p.d(G)p.d(A)}$$$RNA1{StrandType:ss}|RNA2{StrandType:as}$” was tested, and the normalised inhibition (eCFP-eYFP dual reporter) was 39.5%.
